These results are taken from ChEMBL document CHEMBL1143656, “A novel series of potent gamma-secretase inhibitors based on a benzobicyclo[4.2.1]nonane core” (Bioorg Med Chem Lett, 2005).

Each structure is given as a SMILES string.

The subject of one assay is Mus musculus. Briefly: Concentration of […] beta40 in plasma of transgenic APP-YAC mice 4 hr after 100 mg/kg peroral dose. The format is functional, organism-based.
Details: not given
Also on record: dose 100 mg/kg.
`O=S(=O)(NC1C2CCC1Cc1cc(/C=C/CN3CCOCC3)ccc1C2)c1ccc(Cl)s1` (stereo in doubt; form 1) [listing 1 of 2 here] registered a Plasma concentration greater than 7.91 µM.

Another assay concerns Mus musculus. Briefly: Reduction of […] beta-40 in transgenic APP-YAC mice 4 hr after 100 mg/kg peroral dose. Particulars: route oral. The format is functional.
With `O=S(=O)(NC1C2CCC1Cc1cc(/C=C/CN3CCOCC3)ccc1C2)c1ccc(Cl)s1` (stereo in doubt; form 1) [listing 2 of 2 here], the Reduction is given as 50%.

A further assay concerns Mus musculus. Briefly: Concentration of […] beta40 in brain of transgenic APP-YAC mice 4 hr after 100 mg/kg peroral dose. Particulars: route oral. The class given is functional.
`O=S(=O)(NC1C2CCC1Cc1cc(/C=C/CN3CCOCC3)ccc1C2)c1ccc(Cl)s1` (stereo in doubt; form 1) [listing 2 of 2 here] displayed a Brain concentration of 16.7 µM.

The next assay deals with Gamma-secretase. Briefly: Inhibitory concentration against Gamma-secretase in whole cell inhibition assay using SH-SY5Y cells. The format is functional, cell-based, Homo sapiens.
Details: not given
The term IC50 denotes the midpoint of a concentration-inhibition curve. On to `CCCCCC(=O)Nc1ccc2c(c1)CC1CCC(C2)C1NS(=O)(=O)c1ccccc1` (stereo not given), for which the IC50 was greater than 1000 nM.
The same measure, in the same setting: for `O=S(=O)(NC1C2CCC1Cc1cc(/C=C/CN3CCOCC3)ccc1C2)c1ccc(Cl)s1` (stereo in doubt; form 1) [listing 2 of 2 here] the value was 1 nM.
`O=S(=O)(NC1C2CCC1Cc1ccccc1C2)c1ccccc1` (stereo not given) had an IC50 of 190 nM.
Still for that read-out and setting: with `Cc1ccc(S(=O)(=O)NC2C3CCC2Cc2ccccc2C3)cc1` (stereo not given) the figure was 651 nM.
Compound `CC1CCCN1CCOc1ccc2c(c1)CC1CCC(C2)C1NS(=O)(=O)c1ccc(Cl)s1` (stereo not given) had a concentration for half-maximal inhibition (IC50) of 335 nM.
Same read-out and setting: for `O=S(=O)(NC1C2CCC1Cc1ccccc1C2)c1ccc(F)cc1` (stereo not given) the value was 129 nM.
As to `CCc1ccc(S(=O)(=O)NC2C3CCC2Cc2ccccc2C3)cc1` (stereo not given), the IC50 is greater than 1000 nM.
Same read-out and setting: for `O=S(=O)(NC1C2CCC1Cc1ccccc1C2)c1cccc(F)c1` (stereo not given) the value was 324 nM.
The same measure, in the same setting: for `O=C(Nc1ccc2c(c1)CC1CCC(C2)C1NS(=O)(=O)c1ccc(Cl)s1)c1ccccn1` (stereo not given) the value was 12 nM.
Same read-out and setting: for `O=C(Nc1ccc2c(c1)CC1CCC(C2)C1NS(=O)(=O)c1ccccc1)c1ccccn1` (stereo not given) the value was 75 nM; for `CCN(CC)CC(=O)Nc1ccc2c(c1)CC1CCC(C2)C1NS(=O)(=O)c1ccc(Cl)s1` (stereo not given), 41 nM.
`CC1CCCCN1CCOc1ccc2c(c1)CC1CCC(C2)C1NS(=O)(=O)c1ccc(Cl)s1` (stereo not given) had a 50% inhibitory concentration (IC50) of 227 nM.
`O=S(=O)(NC1C2CCC1Cc1cc(F)ccc1C2)c1ccc(Cl)s1` (stereo not given): the IC50 is 29 nM.
On the same count and under the same terms, with `O=S(=O)(NC1C2CCC1Cc1cc(OCCN3CCC(O)C3)ccc1C2)c1ccc(Cl)s1` (stereo not given) the figure was 209 nM; with `COc1ccc2c(c1)CC1CCC(C2)C1NS(=O)(=O)c1ccc(Cl)s1` (stereo not given), 490 nM.
`O=C(CN1CCCCC1)Nc1ccc2c(c1)CC1CCC(C2)C1NS(=O)(=O)c1ccc(Cl)s1` (stereo not given) had an IC50 of 6 nM.
On the same count and under the same terms, for `O=C(Nc1ccc2c(c1)CC1CCC(C2)C1NS(=O)(=O)c1ccccc1)c1ccccc1` (stereo not given) the value was greater than 1000 nM; for `O=S(=O)(NC1C2CCC1Cc1cc(OCCN3CCC(O)CC3)ccc1C2)c1ccc(Cl)s1` (stereo not given), 623 nM; for `O=S(=O)(NC1C2CCC1Cc1ccccc1C2)c1ccccc1F` (stereo not given), 239 nM.
The compound `O=S(=O)(NC1C2CCC1Cc1cc(OCCN3CCCCC3)ccc1C2)c1ccc(Cl)s1` (stereo not given) registered an IC50 of 73 nM.
On the same count and under the same terms, for `O=S(=O)(NC1C2CCC1Cc1cc(/C=C/CN3CCOCC3)ccc1C2)c1ccc(Cl)s1` (stereo in doubt; form 2) the value was 315 nM; for `Nc1ccc2c(c1)CC1CCC(C2)C1NS(=O)(=O)c1ccccc1` (stereo not given), 6000 nM.
On the same count and under the same terms, for `CCS(=O)(=O)NC1C2CCC1Cc1ccccc1C2` (stereo not given) the value was greater than 1000 nM; for `O=S(=O)(NC1C2CCC1Cc1ccccc1C2)c1ccc(Cl)cc1` (stereo not given), 467 nM.
`O=C(CCc1ccccc1)Nc1ccc2c(c1)CC1CCC(C2)C1NS(=O)(=O)c1ccccc1` (stereo not given) had a half-inhibitory concentration (IC50) greater than 1000 nM.
`CCCCCS(=O)(=O)NC1C2CCC1Cc1ccccc1C2` (stereo not given) displayed an IC50 greater than 1000 nM.
On the same count and under the same terms, with `O=C(Nc1ccc2c(c1)CC1CCC(C2)C1NS(=O)(=O)c1ccccc1)OCc1ccccc1Cl` (stereo not given) the figure was 153 nM.
Same read-out and setting: for `O=S(=O)(NC1C2CCC1Cc1c(Cl)cccc1C2)c1ccc(Cl)s1` (stereo not given) the value was 175 nM; for `O=S(=O)(NC1C2CCC1Cc1ccccc1C2)c1cc(Cl)c(Cl)s1` (stereo not given), greater than 1000 nM.
`CCCCS(=O)(=O)NC1C2CCC1Cc1ccccc1C2` (stereo not given) showed a 50% inhibitory concentration (IC50) of 610 nM.
On the same count and under the same terms, with `CN1CCN(C/C=C/c2ccc3c(c2)CC2CCC(C3)C2NS(=O)(=O)c2ccc(Cl)s2)CC1` (stereo not given) the figure was 39 nM; with `O=S(=O)(NC1C2CCC1Cc1cc(OCCN3CCOCC3)ccc1C2)c1ccc(Cl)s1` (stereo not given), 5 nM.
Same read-out and setting: with `O=C(Nc1ccc2c(c1)CC1CCC(C2)C1NS(=O)(=O)c1ccccc1)OCc1ccc(Cl)cc1` (stereo not given) the figure was 16 nM; with `CC(=O)Nc1ccc2c(c1)CC1CCC(C2)C1NS(=O)(=O)c1ccccc1` (stereo not given), greater than 1000 nM; with `O=C(CN1CCN(c2ccccc2)CC1)Nc1ccc2c(c1)CC1CCC(C2)C1NS(=O)(=O)c1ccc(Cl)s1` (stereo not given), 5 nM.
Same read-out and setting: with `CC(C)(C)c1ccc(S(=O)(=O)NC2C3CCC2Cc2ccccc2C3)cc1` (stereo not given) the figure was greater than 1000 nM.
Regarding `CN1CCN(CC(=O)Nc2ccc3c(c2)CC2CCC(C3)C2NS(=O)(=O)c2ccc(Cl)s2)CC1` (stereo not given), the IC50 stood at 69 nM.
As for `O=[N+]([O-])c1ccc(S(=O)(=O)NC2C3CCC2Cc2ccccc2C3)cc1` (stereo not given), the IC50 was greater than 1000 nM.
On the same count and under the same terms, with `O=C(Nc1ccc2c(c1)CC1CCC(C2)C1NS(=O)(=O)c1ccccc1)c1ccncc1` (stereo not given) the figure was greater than 1000 nM; with `O=C(Nc1ccc2c(c1)CC1CCC(C2)C1NS(=O)(=O)c1ccccc1)OCc1cccc(Cl)c1` (stereo not given), 412 nM.
Still for that read-out and setting: for `CC(C)CCCC(=O)Nc1ccc2c(c1)CC1CCC(C2)C1NS(=O)(=O)c1ccccc1` (stereo not given) the value was 535 nM; for `O=C(Nc1ccc2c(c1)CC1CCC(C2)C1NS(=O)(=O)c1ccccc1)c1cccnc1` (stereo not given), greater than 1000 nM.
Same read-out and setting: with `O=S(=O)(NC1C2CCC1Cc1cc(F)ccc1C2)c1ccccc1` (stereo not given) the figure was 70 nM; with `O=S(=O)(NC1C2CCC1Cc1c(F)cccc1C2)c1ccc(Cl)s1` (stereo not given), 34 nM.
With `O=S(=O)(NC1C2CCC1Cc1cc(/C=C/CN3CCN(c4ccccc4)CC3)ccc1C2)c1ccc(Cl)s1` (stereo not given), the half-inhibitory concentration (IC50) amounted to 21 nM.
Still for that read-out and setting: with `O=C(CNCc1ccccc1)Nc1ccc2c(c1)CC1CCC(C2)C1NS(=O)(=O)c1ccc(Cl)s1` (stereo not given) the figure was 3490 nM; with `O=S(=O)(NC1C2CCC1Cc1cc(/C=C/CN3CCCCC3)ccc1C2)c1ccc(Cl)s1` (stereo not given), 152 nM.
Same read-out and setting: with `CN(CC(=O)Nc1ccc2c(c1)CC1CCC(C2)C1NS(=O)(=O)c1ccc(Cl)s1)Cc1ccccc1` (stereo not given) the figure was 226 nM; with `CCCS(=O)(=O)NC1C2CCC1Cc1ccccc1C2` (stereo not given), 721 nM.
Still for that read-out and setting: with `O=C(Nc1ccc2c(c1)CC1CCC(C2)C1NS(=O)(=O)c1ccccc1)OCc1ccccc1` (stereo not given) the figure was 74 nM; with `O=C(Nc1ccc2c(c1)CC1CCC(C2)C1NS(=O)(=O)c1ccc(Cl)s1)OCc1ccccc1` (stereo not given), 23 nM; with `COCC(=O)Nc1ccc2c(c1)CC1CCC(C2)C1NS(=O)(=O)c1ccccc1` (stereo not given), greater than 1000 nM.
Consider `Cc1cccc(S(=O)(=O)NC2C3CCC2Cc2ccccc2C3)c1` (stereo not given), for which the 50% inhibitory concentration (IC50) was greater than 1000 nM.
Still for that read-out and setting: for `O=S(=O)(NC1C2CCC1Cc1cc(/C=C/Cn3ccnc3)ccc1C2)c1ccc(Cl)s1` (stereo not given) the value was 15 nM; for `O=S(=O)(NC1C2CCC1Cc1ccccc1C2)c1ccc(Cl)s1` (stereo not given), 62 nM; for `O=C(CN1CCOCC1)Nc1ccc2c(c1)CC1CCC(C2)C1NS(=O)(=O)c1ccc(Cl)s1` (stereo not given), 7 nM.
The same measure, in the same setting: with `O=S(=O)(NC1C2CCC1Cc1ccccc1C2)c1ccc(C(F)(F)F)cc1` (stereo not given) the figure was greater than 1000 nM; with `O=S(=O)(NC1C2CCC1Cc1cc(Cl)ccc1C2)c1ccc(Cl)s1` (stereo not given), 146 nM.
In turn, `O=S(=O)(NC1C2CCC1Cc1ccccc1C2)c1cccs1` (stereo not given) came in with an IC50 of 50 nM.
In turn, `O=S(=O)(NC1C2CCC1Cc1cc(/C=C/CN3CCOCC3)ccc1C2)c1ccc(Cl)s1` (racemic) showed an IC50 of 5 nM.
The same measure, in the same setting: with `O=C(CN1CCCC1)Nc1ccc2c(c1)CC1CCC(C2)C1NS(=O)(=O)c1ccc(Cl)s1` (stereo not given) the figure was 7 nM.
Same read-out and setting: for `O=S(=O)(NC1C2CCC1Cc1cc(O)ccc1C2)c1ccc(Cl)s1` (stereo not given) the value was 269 nM.
